Assay [1] deals with T1, Citron Rho-interacting kinase (Homo sapiens, UniProt O14578). Description: NanoLuc NanoBRET (CIT). A general note: In BRET a luciferase serves as donor, and the signal depends on an acceptor being close.
For assay [2], the target named is T1, Citron Rho-interacting kinase. Description: NanoLuc NanoBRET (CITKD).

The structures appear in SMILES notation.

We go through 1 compound from ChEMBL document CHEMBL5723584 (2023).

T1 sequence (O14578 whole entry): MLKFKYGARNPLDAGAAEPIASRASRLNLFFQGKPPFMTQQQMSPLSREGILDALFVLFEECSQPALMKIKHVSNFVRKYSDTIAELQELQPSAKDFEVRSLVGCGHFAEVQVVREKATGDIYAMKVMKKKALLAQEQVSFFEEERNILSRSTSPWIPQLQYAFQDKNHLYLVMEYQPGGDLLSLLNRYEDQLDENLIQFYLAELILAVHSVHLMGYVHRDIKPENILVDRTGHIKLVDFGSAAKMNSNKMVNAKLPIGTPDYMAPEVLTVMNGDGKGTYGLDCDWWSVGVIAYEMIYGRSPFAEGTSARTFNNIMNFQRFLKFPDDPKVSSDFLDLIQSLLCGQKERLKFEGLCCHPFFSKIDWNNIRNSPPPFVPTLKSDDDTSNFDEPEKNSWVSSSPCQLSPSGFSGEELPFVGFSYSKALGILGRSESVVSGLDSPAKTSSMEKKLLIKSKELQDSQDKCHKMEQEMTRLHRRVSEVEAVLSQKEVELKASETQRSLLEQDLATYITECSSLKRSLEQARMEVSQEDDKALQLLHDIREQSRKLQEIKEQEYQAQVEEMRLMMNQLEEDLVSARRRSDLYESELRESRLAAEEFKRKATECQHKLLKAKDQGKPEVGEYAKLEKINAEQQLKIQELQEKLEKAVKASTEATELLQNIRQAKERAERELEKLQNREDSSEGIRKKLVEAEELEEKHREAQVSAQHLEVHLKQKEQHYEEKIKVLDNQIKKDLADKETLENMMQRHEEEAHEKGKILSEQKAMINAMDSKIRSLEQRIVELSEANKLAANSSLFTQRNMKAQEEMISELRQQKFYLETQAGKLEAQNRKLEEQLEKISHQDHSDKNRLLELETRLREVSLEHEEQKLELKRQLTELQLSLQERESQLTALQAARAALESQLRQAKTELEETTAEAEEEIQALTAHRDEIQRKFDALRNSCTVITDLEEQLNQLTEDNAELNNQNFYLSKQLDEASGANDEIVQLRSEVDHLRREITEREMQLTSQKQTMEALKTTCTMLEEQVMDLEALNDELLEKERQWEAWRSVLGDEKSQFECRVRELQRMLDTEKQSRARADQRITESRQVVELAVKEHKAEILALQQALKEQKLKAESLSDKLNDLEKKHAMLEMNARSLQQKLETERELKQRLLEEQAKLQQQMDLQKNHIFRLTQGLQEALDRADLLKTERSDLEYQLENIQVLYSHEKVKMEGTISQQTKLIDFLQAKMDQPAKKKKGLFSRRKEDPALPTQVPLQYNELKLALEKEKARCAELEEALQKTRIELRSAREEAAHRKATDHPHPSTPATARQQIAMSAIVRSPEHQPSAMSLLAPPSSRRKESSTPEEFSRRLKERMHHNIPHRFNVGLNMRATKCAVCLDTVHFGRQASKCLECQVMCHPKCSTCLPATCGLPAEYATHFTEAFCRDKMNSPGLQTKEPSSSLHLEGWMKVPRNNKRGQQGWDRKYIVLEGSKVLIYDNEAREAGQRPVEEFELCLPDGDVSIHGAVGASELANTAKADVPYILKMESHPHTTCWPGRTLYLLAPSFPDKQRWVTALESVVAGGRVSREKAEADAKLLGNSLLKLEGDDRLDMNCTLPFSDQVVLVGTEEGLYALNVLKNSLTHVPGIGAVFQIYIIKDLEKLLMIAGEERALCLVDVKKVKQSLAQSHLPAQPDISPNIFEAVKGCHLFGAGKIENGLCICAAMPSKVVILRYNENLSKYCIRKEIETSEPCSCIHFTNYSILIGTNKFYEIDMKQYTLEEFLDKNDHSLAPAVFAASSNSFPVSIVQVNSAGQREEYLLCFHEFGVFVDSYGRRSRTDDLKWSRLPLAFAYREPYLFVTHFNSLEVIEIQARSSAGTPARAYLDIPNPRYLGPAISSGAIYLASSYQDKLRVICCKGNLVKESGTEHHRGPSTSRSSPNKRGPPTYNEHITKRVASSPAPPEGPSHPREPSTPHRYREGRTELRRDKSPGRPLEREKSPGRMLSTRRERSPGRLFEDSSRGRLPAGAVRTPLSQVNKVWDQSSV

For `Cc1cc2c(-c3ccc(NC(=O)[C@H](N)CC(C)(C)C)cc3C)cncc2[nH]1`, the Kd result in assay [1] and in assay [2] was “no binding” throughout.
